# Measured values as given in patent publication US20130177610A1, “NANO-METALLIC ALLOY DELIVERY SYSTEM FOR TREATMENT OF INFECTED CELLS AND LEGIONS” (UNIVERSITY OF NORTH CAROLINA AT GREENSBORO, priority 2008, published 2013).
# Test system: S. Aureus in osteoblast cells
# Assay: Confocal microscopy live/dead staining (SYTO 9 / propidium iodide) of infected osteoblasts
# Type: cell-based, Staphylococcus aureus
# Details: gentamycine alone, FIG. 6C
# Experimental: Confocal microscopy provided the evidence for intracellular bacteria killing. Osteoblast cells were cultured on 18 mm cover slips in a six well plate. Cells were treated with nanoparticles 1 ug/mL. The stain used was from invitrogen (L-7002) with two types of Dyes, SYTO 9 dye, 3,34 mM (Component A), 300 μL solution in DMSO and Propidium iodide PI, 20 mM (Component B), 300 μL solution in DMSO. The plates were incubated in the dark for 15 minutes after which the coverslips with growing co-cultured cells were gently removed and were placed on a glass slide containing 50 μL of 10%A glycerol with cells lying between the cover slip and the glass slide. The slide was observed under a confocal microscope using bandpass filters for red and green color. Images were obtained at different working distances and were superimposed by an Olympus CCD camera software to get images with dual color. […] Gentamycine is an antibiotic that is not capable of penetrating the bone cells membrane.
substance,measurement,value
gentamycine,"dead bacteria (red) in infected osteoblast cells, confocal image",no significant numbers of dead bacteria
